For this assay, the target named is T1, recombinant human PAI-1 (Homo sapiens, UniProt P05121).
T1 construct: purchased Molecular Innovations, Inc
As to the kind of experiment: Test Example 2: human PAI-1 inhibitory activity (tPA fluorogenic substrate, pH 7.4 HEPES buffer). Format: biochemical. Here is the method:
0.1 M HEPES, 0.1 M NaCl. 1 mM EDTA. 0.1% Polyethylene glycol 8,000 (Hampton Research Corporation),
2 mM Dimethyldecylphoshine oxide [Apo-10] (Fluka Corporation)

Where [1] appears, read: human PAI-1, compound concentration 0.1 μM.
Where [2] appears, read: human PAI-1, compound concentration 0.3 μM.
Where [3] appears, read: human PAI-1, compound concentration 1 μM.
Setting [4] is: human PAI-1, compound concentration 3 μM.
The mark [5] stands for this setting: human PAI-1, calculated from the inhibition rates.
The mark [6] stands for this setting: human PAI-1, compound concentration 10 μM.
The mark [7] stands for this setting: human PAI-1, compound concentration 25 μM.
[8] abbreviates: read-out: Inhibition Rate of PAI-1 Activity (%).

Structures are written as SMILES. Read-outs that look alike come from different tables or passages of the source.

T1 sequence (P05121 24-402): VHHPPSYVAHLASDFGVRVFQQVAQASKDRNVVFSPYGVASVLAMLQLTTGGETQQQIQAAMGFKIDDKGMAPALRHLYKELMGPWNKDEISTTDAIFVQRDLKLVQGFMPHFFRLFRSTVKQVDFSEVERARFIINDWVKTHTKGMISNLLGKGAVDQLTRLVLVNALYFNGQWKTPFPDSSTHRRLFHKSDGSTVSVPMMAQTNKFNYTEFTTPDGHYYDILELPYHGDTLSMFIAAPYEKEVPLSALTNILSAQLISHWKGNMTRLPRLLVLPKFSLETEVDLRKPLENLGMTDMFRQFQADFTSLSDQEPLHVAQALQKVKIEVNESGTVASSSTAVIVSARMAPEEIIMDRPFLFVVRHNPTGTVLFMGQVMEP

With `CC(C)(C)c1ccc(Oc2cc(-c3ccccc3OC(F)(F)F)ccc2/C=C/C(=O)O)cc1` [Compound 466], the “Inhibition Rate of PAI-1 Activity (%)” value reads like this: under setting [1], 4%; under setting [2], 9%; under setting [3], 88%; under setting [4], greater than 99%.

In the case of `CCCCC(Oc1ccc(-c2ccc(OC(F)(F)F)cc2)cc1OCc1ccc(C(C)(C)C)cc1)C(=O)O` (stereo not drawn) [Compound 310], the IC50 under setting [5] was 710 nM.

Take `CC(C)c1ccccc1Oc1cc(-c2ccc(OC(F)(F)F)cc2)ccc1/C=C/C(=O)O` [Compound 490]: the “Inhibition Rate of PAI-1 Activity (%)” value is recorded as 6% under setting [1], 13% under setting [2], 91% under setting [3] and greater than 99% under setting [4].

Take `CCCCOc1ccc(Oc2cc(-c3ccc(OC(F)(F)F)cc3)ccc2CCC(=O)O)cc1` [Compound 461]: the “Inhibition Rate of PAI-1 Activity (%)” value amounted to 1% under setting [1], 26% under setting [2], 95% under setting [3] and 98% under setting [4].

As for `CCCCCOc1cc(-c2ccc(OC(F)(F)F)cc2)ccc1N(CCCCc1ccccc1)CC(=O)O` [Compound 643], the “Inhibition Rate of PAI-1 Activity (%)” value runs as follows: under setting [1], 0%; under setting [2], 18%; under setting [3], 38%; under setting [4], 92%.

As to `CC(C)(C)c1ccc(CN(C(=O)C(=O)O)c2ccc(N3CCN(c4ccc(OC(F)(F)F)cc4)CC3)cc2)cc1` [Compound 628], the “Inhibition Rate of PAI-1 Activity (%)” value is reported as 40% under setting [3], greater than 99% under setting [4], greater than 99% under setting [6] and 90% under setting [7].

`CCCCOc1ccc(-c2ccc(OC(F)(F)F)cc2)cc1/C=C/C(=O)O` [Compound 405]: the “Inhibition Rate of PAI-1 Activity (%)” value is reported as 14% under setting [3], 63% under setting [4], greater than 99% under setting [6] and 95% under setting [7].

On to `CC(C)(C)c1ccc(Sc2cc(-c3ccc(OC(F)(F)F)cc3)ccc2/C=C\C(=O)O)cc1` [Compound 529], for which the “Inhibition Rate of PAI-1 Activity (%)” value by setting is: under setting [1], 18%; under setting [2], 29%; under setting [3], 94%; under setting [4], greater than 99%.

With `O=C(O)CCc1ccc(-c2ccc(OC(F)(F)F)cc2)cc1Oc1ccc2ccccc2c1` [Compound 476], the “Inhibition Rate of PAI-1 Activity (%)” value under setting [1] amounted to 0%, the “Inhibition Rate of PAI-1 Activity (%)” value under setting [2] is on record as 3%, the “Inhibition Rate of PAI-1 Activity (%)” value under setting [3] was 65% and the “Inhibition Rate of PAI-1 Activity (%)” value under setting [4] is reported as greater than 99%.

Consider `CCCCCOc1cc(-c2cccc(C)c2)ccc1N(CCCCc1ccccc1)C(=O)C(=O)O` [Compound 376], for which the IC50 was 790 nM.

For the compound `CC(C)c1ccc(Oc2cc(-c3ccc(OC(F)(F)F)cc3)ccc2OCC(=O)O)cc1` [Compound 333], under setting [5], the IC50 was 1720 nM.

On to `CC(C)(C)c1ccc(Oc2cc(-c3cc(Cl)ccc3Cl)ccc2/C=C/C(=O)O)cc1` [Compound 483], for which the “Inhibition Rate of PAI-1 Activity (%)” value by setting is: under setting [1], 0%; under setting [2], 8%; under setting [3], 76%; under setting [4], greater than 99%.

For `CCCCCOc1ccc(-c2cccc(C)c2)cc1N(CCCCc1ccccc1)C(=O)C(=O)O` [Compound 379], the IC50 amounted to 640 nM.

As to `O=C(O)C(=O)N(CCCCc1ccccc1)c1cc(-c2ccc(OC(F)(F)F)cc2)ccc1OCCC(F)(F)F` [Compound 383], the IC50 is 1340 nM.

`CCCCCOc1ccc(-c2ccc(OC(F)(F)F)cc2)cc1N(CCCCc1ccc(Cl)cc1)C(=O)C(=O)O` [Compound 384]: the IC50 came out at 510 nM.

Regarding `CC(C)(C)c1cccc(Oc2cc(-c3cccc(OC(F)(F)F)c3)ccc2CCC(=O)O)c1` [Compound 515], the “Inhibition Rate of PAI-1 Activity (%)” value under setting [1] was 12%, the “Inhibition Rate of PAI-1 Activity (%)” value under setting [2] is 16%, the “Inhibition Rate of PAI-1 Activity (%)” value under setting [3] is given as 86% and the “Inhibition Rate of PAI-1 Activity (%)” value under setting [4] was greater than 99%.

As for `CN(C(=O)c1ccc(N(Cc2ccc(C(C)(C)C)cc2)C(=O)C(=O)O)cc1)c1ccc(OC(F)(F)F)cc1` [Compound 618], the “Inhibition Rate of PAI-1 Activity (%)” value is, setting by setting: under setting [3], 0%; under setting [4], 24%; under setting [6], 78%; under setting [7], greater than 99%.

With `CCCCCCCCCOc1cc(N(CCCCc2ccccc2)C(=O)C(=O)O)ccc1-c1ccc(OC(F)(F)F)cc1` [Compound 389], the IC50 was less than 100 nM. Under setting [8], the inhibition at 1 µM is greater than 99% and the inhibition at 3 µM was greater than 99%.

Turning to `CCCCCOc1cc(-c2ccc(OC(F)(F)F)cc2)cc(OCCCCC)c1OCC(=O)O` [Compound 424], the “Inhibition Rate of PAI-1 Activity (%)” value is, setting by setting: under setting [1], 0%; under setting [2], 4%; under setting [3], 38%; under setting [4], greater than 99%.

On to `O=C(O)COc1ccc(-c2ccc(OC(F)(F)F)cc2)cc1OCCCCc1ccccc1` [Compound 337], for which, under setting [5], the IC50 is 2020 nM.

For `O=C(O)C(=O)N(CCCCc1ccccc1)c1cc(-c2ccc(OC(F)(F)F)cc2)ccc1OCCCC1CCCCC1` [Compound 656], the “Inhibition Rate of PAI-1 Activity (%)” value by setting is: under setting [1], 24%; under setting [2], 64%; under setting [3], 95%; under setting [4], 88%.

For the compound `CCCCCOc1ccc(-c2ccc(Cl)cc2)cc1N(CCCCc1ccccc1)C(=O)C(=O)O` [Compound 361], the IC50 was found to be 830 nM.

Regarding `Cc1cc(C)cc(-c2ccc(/C=C/C(=O)O)c(Oc3ccc(C(C)(C)C)cc3)c2)c1` [Compound 496], the “Inhibition Rate of PAI-1 Activity (%)” value under setting [1] is 4%, the “Inhibition Rate of PAI-1 Activity (%)” value under setting [2] is 9%, the “Inhibition Rate of PAI-1 Activity (%)” value under setting [3] came out at 85% and the “Inhibition Rate of PAI-1 Activity (%)” value under setting [4] is greater than 99%.

On to `CC(C)c1ccc(Oc2cc(-c3ccc(OC(F)(F)F)cc3)ccc2CCC(=O)O)cc1` [Compound 510], for which the “Inhibition Rate of PAI-1 Activity (%)” value under setting [1] was 0%, the “Inhibition Rate of PAI-1 Activity (%)” value under setting [2] came to 8%, the “Inhibition Rate of PAI-1 Activity (%)” value under setting [3] was found to be 84% and the “Inhibition Rate of PAI-1 Activity (%)” value under setting [4] is greater than 99%.

For the compound `CC(C)c1ccc(-c2ccc(OCC(=O)O)c(Oc3ccc(C(C)(C)C)cc3)c2)cc1` [Compound 441], the “Inhibition Rate of PAI-1 Activity (%)” value is, setting by setting: under setting [1], 9%; under setting [2], 29%; under setting [3], 89%; under setting [4], 98%.

As to `CC(C)(C)c1ccc(-c2ccc(OCC(=O)O)c(Oc3cccc(C(C)(C)C)c3)c2)cc1` [Compound 465], the “Inhibition Rate of PAI-1 Activity (%)” value under setting [1] was determined as 10%, the “Inhibition Rate of PAI-1 Activity (%)” value under setting [2] came to 17%, the “Inhibition Rate of PAI-1 Activity (%)” value under setting [3] was 87% and the “Inhibition Rate of PAI-1 Activity (%)” value under setting [4] is reported as 98%.

For `CCC(CC)Oc1ccc(-c2ccc(OCC(=O)O)c(Oc3ccc(C(C)(C)C)cc3)c2)cc1` [Compound 447], the “Inhibition Rate of PAI-1 Activity (%)” value under setting [1] is on record as 4%, the “Inhibition Rate of PAI-1 Activity (%)” value under setting [2] is 11%, the “Inhibition Rate of PAI-1 Activity (%)” value under setting [3] is 89% and the “Inhibition Rate of PAI-1 Activity (%)” value under setting [4] is greater than 99%.

Take `O=C(O)C(=O)N(CCCCc1ccccc1)c1ccc(N2CCSCC2)c(-c2ccc(OC(F)(F)F)cc2)c1` [Compound 675]: the “Inhibition Rate of PAI-1 Activity (%)” value is, setting by setting: under setting [1], 10%; under setting [2], 14%; under setting [3], 95%; under setting [4], greater than 99%.

For `CCCCCCCCCOc1cc(N(Cc2ccc(C(C)(C)C)cc2)C(=O)C(=O)O)ccc1-c1ccc(OC(F)(F)F)cc1` [Compound 388], the IC50 is less than 100 nM. Also, under setting [8], the inhibition at 0.3 µM is greater than 99%, the inhibition at 1 µM was greater than 99% and the inhibition at 3 µM was greater than 99%.

Regarding `CCCCC(Oc1cc(-c2ccc(OC(F)(F)F)cc2)ccc1OCCCCc1ccc(Cl)cc1)C(=O)O` (stereo not drawn) [Compound 325], under setting [5], the IC50 was 580 nM.

Consider `CCCCCOc1ccc(-c2ccc(C(C)C)cc2)cc1N(CCCCc1ccccc1)C(=O)C(=O)O` [Compound 678], for which the “Inhibition Rate of PAI-1 Activity (%)” value runs as follows: under setting [1], 19%; under setting [2], 33%; under setting [3], 97%; under setting [4], 94%.

Turning to `CCCCCCOc1cc(-c2ccc(OC(F)(F)F)cc2)ccc1OC(CCCCCC)C(=O)O` (stereo not drawn) [Compound 430], the “Inhibition Rate of PAI-1 Activity (%)” value runs as follows: under setting [1], 1%; under setting [2], 15%; under setting [3], 97%; under setting [4], greater than 99%.

Consider `CC(C)(C)c1ccc(Oc2cc(-c3cccc(C(F)(F)F)c3)ccc2OCC(=O)O)cc1` [Compound 315], for which, under setting [5], the IC50 was 850 nM. Moreover, under setting [8], the inhibition at 3 µM is greater than 99%.

Regarding `O=C(O)C(=O)N(CCCCc1ccccc1)c1cc(-c2ccc(OC(F)(F)F)cc2)ccc1N1CCCCC1` [Compound 370], the IC50 stood at 940 nM.

In the case of `CCCCCOc1ccc(-c2ccc(OC(F)(F)F)cc2)cc1CN(CC(=O)O)c1ccc(C(C)(C)C)cc1` [Compound 647], the “Inhibition Rate of PAI-1 Activity (%)” value is, setting by setting: under setting [1], 27%; under setting [2], 43%; under setting [3], 95%; under setting [4], 98%.

For `CC(C)(C)c1ccc(Oc2cc(-c3ccc(OC(F)(F)F)cc3)ccc2NCC(=O)O)cc1` [Compound 442], the “Inhibition Rate of PAI-1 Activity (%)” value is, setting by setting: under setting [1], 1%; under setting [2], 4%; under setting [3], 83%; under setting [4], greater than 99%.

The term IC50 denotes the concentration that inhibits the measured activity by half. The term inhibition denotes the percentage by which the read-out fell short of the control.

(Values after US8633245B2, “PAI-1 inhibitor” (Institute of Medicinal Molecular Design, Inc., priority 2008, dated 2014).)
